# Assay results taken from patent US8377974B2 (Millennium Pharmaceuticals, Inc., priority 2004, dated 2013).
# Target: T1, human plasma protein factor Xa (Homo sapiens, UniProt P00742)
# T1 construct: measure proteolytic activity of the enzyme (factor Xa); purchased Haematologic Technologies (Essex Junction, Vt.); host or cells: human plasma
# Assay: Factor Xa IC50 determination: cleavage of paranitroanilide substrate S-2765 in 96-well plates
# Format: biochemical
# Settings: fXa 1 nM, S-2765 100 μM, Tris buffered saline pH 7.4, room temperature
# How it was run: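 Human plasma factor Xa (1 nM) preincubated 5 min at room temperature with inhibitor (0.01 nM–10 μM final) in Tris-buffered saline pH 7.4 with 5 mM CaCl2, 0.1% BSA, 5% DMSO. S-2765 at 100 μM final; hydrolysis at 405 nm over 2 min. IC50 from 4-parameter fit of initial velocities.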
# T1 sequence (P00742 235-488 limits assumed): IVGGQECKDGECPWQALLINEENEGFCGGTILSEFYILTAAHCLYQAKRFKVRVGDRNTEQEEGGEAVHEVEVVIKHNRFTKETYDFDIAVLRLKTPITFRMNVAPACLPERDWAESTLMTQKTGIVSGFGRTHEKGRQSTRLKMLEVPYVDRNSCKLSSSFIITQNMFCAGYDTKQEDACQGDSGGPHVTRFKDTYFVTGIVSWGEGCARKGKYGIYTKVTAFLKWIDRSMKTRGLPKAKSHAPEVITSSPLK
# T1 sequence (P00742 41-179 partner limits assumed): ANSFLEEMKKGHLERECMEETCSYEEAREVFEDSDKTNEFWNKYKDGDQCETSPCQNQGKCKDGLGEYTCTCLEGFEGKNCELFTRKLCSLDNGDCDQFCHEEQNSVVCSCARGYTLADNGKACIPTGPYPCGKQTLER
row,IC50 [nM],SMILES
1,≤ 100,"O=C(NCc1cn(-c2ccc(-n3ccccc3=O)cc2)nn1)c1ccc(Cl)s1 [Example 290, 5-Chloro-N-((1-(4-(2-oxopyridin-1(2H)-yl)phenyl)-1H-1,2,3-triazol-4-yl)methyl)thiophene-2-carboxamide]"
2,≤ 100,"O=C(NCc1cn(-c2ccc(-n3cccc(F)c3=O)cc2)nn1)c1ccc(Cl)s1 [Example 291, 5-Chloro-N-((1-(4-(3-fluoro-2-oxopyridin-1(2H)-yl)phenyl)-1H-1,2,3-triazol-4-yl)methyl)thiophene-2-carboxamide]"
3,≤ 100,"O=C(NCc1cn(-c2ccc(-n3cccc(Cl)c3=O)cc2)nn1)c1ccc(Cl)s1 [Example 292, 5-Chloro-N-((1-(4-(3-chloro-2-oxopyridin-1(2H)-yl)phenyl)-1H-1,2,3-triazol-4-yl)methyl)thiophene-2-carboxamide]"
4,≤ 100,"Cc1cccn(-c2ccc(-n3cc(CNC(=O)c4ccc(Cl)s4)nn3)cc2)c1=O [Example 293, 5-Chloro-N-((1-(4-(3-methyl-2-oxopyridin-1(2H)-yl)phenyl)-1H-1,2,3-triazol-4-yl)methyl)thiophene-2-carboxamide]"
5,≤ 100,"COc1cccn(-c2ccc(-n3cc(CNC(=O)c4ccc(Cl)s4)nn3)cc2)c1=O [Example 294, 5-Chloro-N-((1-(4-(3-methoxy-2-oxopyridin-1(2H)-yl)phenyl)-1H-1,2,3-triazol-4-yl)methyl)thiophene-2-carboxamide]"
6,≤ 100,"Cc1ccn(-c2ccc(-n3cc(CNC(=O)c4ccc(Cl)s4)nn3)cc2)c(=O)c1 [Example 295, 5-Chloro-N-((1-(4-(4-methyl-2-oxopyridin-1(2H)-yl)phenyl)-1H-1,2,3-triazol-4-yl)methyl)thiophene-2-carboxamide]"
7,≤ 100,"Cc1ccc(=O)n(-c2ccc(-n3cc(CNC(=O)c4ccc(Cl)s4)nn3)cc2)c1 [Example 296, 5-Chloro-N-((1-(4-(5-methyl-2-oxopyridin-1(2H)-yl)phenyl)-1H-1,2,3-triazol-4-yl)methyl)thiophene-2-carboxamide]"
8,≤ 100,"COc1ccc(=O)n(-c2ccc(-n3cc(CNC(=O)c4ccc(Cl)s4)nn3)cc2)c1 [Example 297, 5-Chloro-N-((1-(4-(5-methoxy-2-oxopyridin-1(2H)-yl)phenyl)-1H-1,2,3-triazol-4-yl)methyl)thiophene-2-carboxamide]"
9,≤ 100,"O=C(NCc1cn(-c2ccc(-n3cc(F)ccc3=O)cc2)nn1)c1ccc(Cl)s1 [Example 298, 5-Chloro-N-((1-(4-(5-fluoro-2-oxopyridin-1(2H)-yl)phenyl)-1H-1,2,3-triazol-4-yl)methyl)thiophene-2-carboxamide]"
10,≤ 100,"O=C(NCc1cn(-c2ccc(-n3cc(Cl)ccc3=O)cc2)nn1)c1ccc(Cl)s1 [Example 299, 5-Chloro-N-((1-(4-(5-chloro-2-oxopyridin-1(2H)-yl)phenyl)-1H-1,2,3-triazol-4-yl)methyl)thiophene-2-carboxamide]"
11,≤ 100,"O=C(NCc1cn(-c2ccc(N3CCCCC3=O)cc2)nn1)c1ccc(Cl)s1 [Example 300, 5-Chloro-N-((1-(4-(2-oxopiperidin-1-yl)phenyl)-1H-1,2,3-triazol-4-yl)methyl)thiophene-2-carboxamide]"
12,≤ 100,"O=C(NCc1cn(-c2ccc(N3CCOCC3=O)cc2)nn1)c1ccc(Cl)s1 [Example 301, 5-Chloro-N-((1-(4-(3-oxomorpholino)phenyl)-1H-1,2,3-triazol-4-yl)methyl)thiophene-2-carboxamide]"
13,≤ 100,"O=C(NCc1cn(-c2ccc(N3CCSCC3=O)cc2)nn1)c1ccc(Cl)s1 [Example 302, 5-Chloro-N-((1-(4-(3-oxothiomorpholino)phenyl)-1H-1,2,3-triazol-4-yl)methyl)thiophene-2-carboxamide]"
14,≤ 100,"O=C(NCc1cn(-c2ccc(N3CCOCCC3=O)cc2)nn1)c1ccc(Cl)s1 [Example 303, 5-Chloro-N-((1-(4-(5-oxo-1,4-oxazepan-4-yl)phenyl)-1H-1,2,3-triazol-4-yl)methyl)thiophene-2-carboxamide]"
15,≤ 100,"O=C(NCc1cn(-c2ccc(-n3ccccc3=O)cc2F)nn1)c1ccc(Cl)s1 [Example 305, 5-Chloro-N-((1-(2-fluoro-4-(2-oxopyridin-1(2H)-yl)phenyl)-1H-1,2,3-triazol-4-yl)methyl)thiophene-2-carboxamide]"
16,≤ 100,"O=C(NCc1cn(-c2ccc(-n3ccccc3=O)cc2O)nn1)c1ccc(Cl)s1 [Example 307, 5-Chloro-N-((1-(2-hydroxy-4-(2-oxopyridin-1(2H)-yl)phenyl)-1H-1,2,3-triazol-4-yl)methyl)thiophene-2-carboxamide]"
17,≤ 100,"O=C(NCc1cn(-c2ccc(-n3ccccc3=O)cn2)nn1)c1ccc(Cl)s1 [Example 309, 5-Chloro-N-((1-(5-(2-oxopyridin-1(2H)-yl)pyridin-2-yl)-1H-1,2,3-triazol-4-yl)methyl)thiophene-2-carboxamide]"
18,≤ 100,"CN1CCN=C1c1ccc(-n2cc(CNC(=O)c3ccc(Cl)s3)nn2)cc1 [Example 312, 5-Chloro-N-((1-(4-(1-methyl-4,5-dihydro-1H-imidazol-2-yl)phenyl)-1H-1,2,3-triazol-4-yl)methyl)thiophene-2-carboxamide]"
19,≤ 100,"CN(C)C(=N)c1ccc(-n2cc(CNC(=O)c3ccc(Cl)s3)nn2)cc1 [Example 313, N-((1-(4-(N,N-Dimethylcarbamimidoyl)phenyl)-1H-1,2,3-triazol-4-yl)methyl)-5-chlorothiophene-2-carboxamide]"
20,≤ 100,"CCN(C)C(=N)c1ccc(-n2cc(CNC(=O)c3ccc(Cl)s3)nn2)cc1 [Example 314, N-((1-(4-(N-Ethyl-N-methylcarbamimidoyl)phenyl)-1H-1,2,3-triazol-4-yl)methyl)-5-chlorothiophene-2-carboxamide]"

# More lines, now with the values behind:
row,SMILES,IC50 [nM]
1,"O=C(NCc1cc(-c2ccc(-n3ccccc3=O)cc2)no1)c1ccc(Cl)s1 [Example 289, 5-Chloro-N-((3-(4-(2-oxopyridin-1(2H)-yl)phenyl)isoxazol-5-yl)methyl)thiophene-2-carboxamide]",≤ 100
2,"O=C(NCc1cn(-c2ccc(I)cc2F)nn1)c1ccc(Cl)s1 [Example 304, 5-Chloro-N-((1-(2-fluoro-4-iodophenyl)-1H-1,2,3-triazol-4-yl)methyl)thiophene-2-carboxamide]",≥ 500
3,"O=C(NCc1cn(-c2ccc(N3CCOCC3=O)cc2F)nn1)c1ccc(Cl)s1 [Example 306, 5-Chloro-N-((1-(2-fluoro-4-(3-oxomorpholino)phenyl)-1H-1,2,3-triazol-4-yl)methyl)thiophene-2-carboxamide]",≤ 100
4,"CN1CCN(c2cc(-n3ccccc3=O)ccc2-n2cc(CNC(=O)c3ccc(Cl)s3)nn2)CC1 [Example 308, 5-Chloro-N-((1-(2-(4-methylpiperazin-1-yl)-4-(2-oxopyridin-1(2H)-yl)phenyl)-1H-1,2,3-triazol-4-yl)methyl)thiophene-2-carboxamide]",≤ 100
5,"O=C(NCc1cc(-c2ccc(-n3ccccc3=O)nc2)no1)c1ccc(Cl)s1 [Example 310, 5-Chloro-N-((3-(6-(2-oxopyridin-1(2H)-yl)pyridin-3-yl)isoxazol-5-yl)methyl)thiophene-2-carboxamide]",≤ 100
6,"O=C(NCc1nc(-c2ccc(-n3ccccc3=O)cc2)no1)c1ccc(Cl)s1 [Example 311, 5-Chloro-N-((3-(4-(2-oxopyridin-1(2H)-yl)phenyl)-1,2,4-oxadiazol-5-yl)methyl)thiophene-2-carboxamide]",≤ 100
7,"CCCN(C)C(=N)c1ccc(-n2cc(CNC(=O)c3ccc(Cl)s3)nn2)cc1 [Example 315, N-((1-(4-(N-Methyl-N-propylcarbamimidoyl)phenyl)-1H-1,2,3-triazol-4-yl)methyl)-5-chlorothiophene-2-carboxamide]",≤ 100
8,"COCCN(C)C(=N)c1ccc(-n2cc(CNC(=O)c3ccc(Cl)s3)nn2)cc1 [Example 316, N-((1-(4-(N-(2-Methoxyethyl)-N-methylcarbamimidoyl)phenyl)-1H-1,2,3-triazol-4-yl)methyl)-5-chlorothiophene-2-carboxamide]",≤ 100
9,"N=C(c1ccc(-n2cc(CNC(=O)c3ccc(Cl)s3)nn2)cc1)N1CCC1 [Example 317, N-((1-(4-(Azetidin-1-yl(imino)methyl)phenyl)-1H-1,2,3-triazol-4-yl)methyl)-5-chlorothiophene-2-carboxamide]",≤ 100
10,"N=C(c1ccc(-n2cc(CNC(=O)c3ccc(Cl)s3)nn2)cc1)N1CCCC1 [Example 318, 5-Chloro-N-((1-(4-(imino(pyrrolidin-1-yl)methyl)phenyl)-1H-1,2,3-triazol-4-yl)methyl)thiophene-2-carboxamide]",≤ 100
11,"N=C(c1ccc(-n2cc(CNC(=O)c3ccc(Cl)s3)nn2)cc1)N1CCCCC1 [Example 319, 5-Chloro-N-((1-(4-(imino(piperidin-1-yl)methyl)phenyl)-1H-1,2,3-triazol-4-yl)methyl)thiophene-2-carboxamide]",≤ 100
12,"CN(C)C(=N)c1ccc(-n2cc(CNC(=O)c3ccc(Cl)s3)nn2)c(F)c1 [Example 320, N-((1-(4-(N,N-Dimethylcarbamimidoyl)-2-fluorophenyl)-1H-1,2,3-triazol-4-yl)methyl)-5-chlorothiophene-2-carboxamide]",≤ 100
13,"N=C(c1ccc(-n2cc(CNC(=O)c3ccc(Cl)s3)nn2)c(F)c1)N1CCC1 [Example 321, N-((1-(4-(Azetidin-1-yl(imino)methyl)-2-fluorophenyl)-1H-1,2,3-triazol-4-yl)methyl)-5-chlorothiophene-2-carboxamide]",≤ 100
14,"N=C(c1ccc(-n2cc(CNC(=O)c3ccc(Cl)s3)nn2)c(F)c1)N1CCCC1 [Example 322, 5-Chloro-N-((1-(2-fluoro-4-(imino(pyrrolidin-1-yl)methyl)phenyl)-1H-1,2,3-triazol-4-yl)methyl)thiophene-2-carboxamide]",≤ 100
